Experimental data as given in publication PMC11793850, “Insights into Molecular Interactions and Biological Effect of Natural Stilbenoids at the TRPA1 Ion Channel” (Chemmedchem, 2024).

Key:
hTRPA1 = target: T1, hTRPA1 (Homo sapiens, UniProt O75762); experiment: FLIPR calcium assay (agonism) in HEK293 cells with inducible hTRPA1; non-expressing HEK293 control; format: cell-based
T1 construct: gene TRPA1

rTRPA1 = target: T2, rTRPA1 (Rattus norvegicus, UniProt Q6RI86); experiment: FLIPR calcium assay in HEK293 cells with inducible rTRPA1 ([…] of maximal AITC response at […]; desensitization to AITC); format: cell-based
T2 construct: gene Trpa1
T2 sequence (Q6RI86 whole entry): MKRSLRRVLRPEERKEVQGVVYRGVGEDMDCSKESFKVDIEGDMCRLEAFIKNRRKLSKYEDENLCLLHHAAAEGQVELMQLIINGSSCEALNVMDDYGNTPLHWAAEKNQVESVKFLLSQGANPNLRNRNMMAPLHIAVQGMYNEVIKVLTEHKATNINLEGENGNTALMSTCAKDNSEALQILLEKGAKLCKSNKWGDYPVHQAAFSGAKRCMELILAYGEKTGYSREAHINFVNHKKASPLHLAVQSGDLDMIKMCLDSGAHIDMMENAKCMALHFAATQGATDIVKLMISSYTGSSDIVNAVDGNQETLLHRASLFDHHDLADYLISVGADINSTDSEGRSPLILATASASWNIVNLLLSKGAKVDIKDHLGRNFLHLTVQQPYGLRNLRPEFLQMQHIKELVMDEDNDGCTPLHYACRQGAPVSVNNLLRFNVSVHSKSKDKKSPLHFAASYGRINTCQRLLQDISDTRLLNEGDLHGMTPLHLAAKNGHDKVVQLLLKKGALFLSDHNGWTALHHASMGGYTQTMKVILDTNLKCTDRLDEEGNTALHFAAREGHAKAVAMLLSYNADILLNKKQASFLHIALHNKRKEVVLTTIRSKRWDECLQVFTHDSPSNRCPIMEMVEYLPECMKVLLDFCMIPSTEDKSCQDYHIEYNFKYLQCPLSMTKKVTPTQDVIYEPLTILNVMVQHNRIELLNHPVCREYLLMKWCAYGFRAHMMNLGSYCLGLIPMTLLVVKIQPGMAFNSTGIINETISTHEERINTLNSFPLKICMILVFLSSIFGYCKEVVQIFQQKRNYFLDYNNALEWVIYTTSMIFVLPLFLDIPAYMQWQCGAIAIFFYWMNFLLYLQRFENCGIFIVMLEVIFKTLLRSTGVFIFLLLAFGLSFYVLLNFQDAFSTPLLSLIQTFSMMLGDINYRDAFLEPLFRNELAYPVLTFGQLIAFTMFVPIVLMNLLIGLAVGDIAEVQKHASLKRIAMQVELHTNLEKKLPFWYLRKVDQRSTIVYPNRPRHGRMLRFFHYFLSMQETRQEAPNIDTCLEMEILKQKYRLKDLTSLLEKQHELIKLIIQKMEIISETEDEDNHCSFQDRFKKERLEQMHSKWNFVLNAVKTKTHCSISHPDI

T1 sequence (O75762 whole entry): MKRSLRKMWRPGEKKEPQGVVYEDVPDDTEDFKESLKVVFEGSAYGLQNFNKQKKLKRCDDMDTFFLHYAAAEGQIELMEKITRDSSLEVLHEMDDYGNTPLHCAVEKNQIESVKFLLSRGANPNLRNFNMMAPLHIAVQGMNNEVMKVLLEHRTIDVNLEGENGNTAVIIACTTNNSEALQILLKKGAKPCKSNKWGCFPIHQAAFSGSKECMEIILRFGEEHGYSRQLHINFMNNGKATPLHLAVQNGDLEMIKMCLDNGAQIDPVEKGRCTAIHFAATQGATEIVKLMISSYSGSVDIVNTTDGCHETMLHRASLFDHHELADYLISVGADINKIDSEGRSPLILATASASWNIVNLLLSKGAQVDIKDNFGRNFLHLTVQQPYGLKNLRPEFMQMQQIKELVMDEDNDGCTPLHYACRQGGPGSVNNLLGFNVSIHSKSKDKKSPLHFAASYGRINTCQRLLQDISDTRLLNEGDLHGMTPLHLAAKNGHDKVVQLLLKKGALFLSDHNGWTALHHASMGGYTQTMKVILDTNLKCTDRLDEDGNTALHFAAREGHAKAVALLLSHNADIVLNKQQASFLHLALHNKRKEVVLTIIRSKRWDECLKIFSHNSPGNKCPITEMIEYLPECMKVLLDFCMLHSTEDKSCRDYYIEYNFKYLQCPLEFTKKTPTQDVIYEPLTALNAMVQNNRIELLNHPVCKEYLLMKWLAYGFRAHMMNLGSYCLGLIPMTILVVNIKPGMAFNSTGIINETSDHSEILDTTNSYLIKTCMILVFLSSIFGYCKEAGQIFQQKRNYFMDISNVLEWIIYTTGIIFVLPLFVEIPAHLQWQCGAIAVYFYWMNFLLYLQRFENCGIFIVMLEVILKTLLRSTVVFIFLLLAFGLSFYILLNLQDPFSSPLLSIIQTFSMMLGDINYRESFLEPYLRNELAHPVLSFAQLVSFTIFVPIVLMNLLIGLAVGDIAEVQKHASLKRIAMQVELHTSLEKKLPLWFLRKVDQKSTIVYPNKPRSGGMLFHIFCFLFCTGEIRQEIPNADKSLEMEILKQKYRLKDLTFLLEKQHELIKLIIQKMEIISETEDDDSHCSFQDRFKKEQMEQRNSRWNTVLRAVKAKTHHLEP

With `COc1cc(O)cc(/C=C/c2ccccc2)c1` [pinosylvin monomethyl ether] as the compound, how does the EC50 (hTRPA1) read?
Its EC50 is 11.2 ± 0.8 µM.

How did the EC50 (hTRPA1) turn out when `Oc1ccc(/C=C/c2cc(O)cc(O)c2)cc1` [Resveratrol] was run?
Its EC50 is 3.2 ± 0.2 µM.

What about the Emax at 100 µM (rTRPA1) of the same compound?
Its Emax at 100 µM is 35%.

With `Oc1cc(O)cc(/C=C/c2ccccc2)c1` [Pinosylvin] as the compound, how does the EC50 (hTRPA1) read?
The EC50 was 12 ± 1.1 µM.
